For data set [1], the system named is 60 Human Cancer Cell Lines (NCI-60). Particulars: data obtained from the NCI/DTP database (asterisk); cited from earlier work.

Molecules are shown by their SMILES. Structures can show the parent of a compound that is named as a salt.

This is an account of results in patent publication US8710062B2, “Piperazinedione compounds” (Taipei Medical University, priority 2011, dated 2014).

In turn, `CN1CCN(C(=O)Oc2ccc(/C=c3\[nH]c(=O)/c(=C/c4ccccc4)[nH]c3=O)nc2)CC1` [Compound 6, 6-((Z)—((Z)-5-benzylidene-3,6-dioxopiperazin-2-ylidene)methyl)pyridin-3-yl-4-methylpiperazine-1-carboxylate] returned a melting point of 234 to 235 °C. The compound `O=c1[nH]/c(=C\c2ccnc3ccccc23)c(=O)[nH]/c1=C\c1ccnc2ccccc12` [Compound 26, 3,6-bis(quinolin-4-ylmethylene)piperazine-2,5-dione] showed a melting point of 374 to 375 °C. As to `O=C1[O][Pt]2([NH][C@@H]3CCCC[C@H]3[NH]2)[O]C1=O` [eloxatin], the negative logarithm of the IC50 (pIC50) in data set [1] is reported as 5.65. As to `CC(=O)O[C@H]1C(=O)[C@@]2(C)[C@H]([C@H](OC(=O)c3ccccc3)[C@]3(O)C[C@H](OC(=O)[C@H](O)[C@@H](NC(=O)c4ccccc4)c4ccccc4)C(C)=C1C3(C)C)[C@]1(OC(C)=O)CO[C@@H]1C[C@@H]2O` [taxol], the negative logarithm of the IC50 (pIC50) in data set [1] is recorded as 7.84. For the compound `O=c1[nH]/c(=C\c2ccc(OCc3ccncc3)cn2)c(=O)n(Cc2ccncc2)/c1=C\c1ccccc1` [Compound 14, (3Z,6Z)-6-benzylidene-3-((5-(pyridin-4-ylmethoxy)pyridin-2-yl)meth-ylene)-1-(pyridin-4-ylmethyl)piperazine-2,5-dione], the melting point is 284 °C (dec.). `NC(Cc1ccc(O)cc1)C(=O)Oc1ccc(/C=c2\[nH]c(=O)/c(=C/c3ccccc3)[nH]c2=O)nc1` (stereo not shown) (as salt: trifluoroacetate) [Compound 12, 1-(6-((Z)—((Z)-5-benzylidene-3,6-dioxopiperazin-2-ylidene)methyl)pyridin-3-yloxy)-3-(4-hydroxyphenyl)-1-oxopropan-2-aminium 2,2,2-trifluoroacetate]: the melting point fell in the range of 312 to 314 °C. Still for that read-out and setting: for `CC(=O)N1CC(=O)N/C(=C\c2cnc3ccccc3c2)C1=O` [Compound 27, 1-acetyl-3-(quinolin-3-ylmethylene)piperazine-2,5-dione] the value was 261 to 262 °C. `C#Cc1cccc(Nc2ncnc3cc(OCCOC)c(OCCOC)cc23)c1` [Tarceva]: the pIC50 in data set [1] is reported as 5.26. For the compound `CNC(=O)c1cc(Oc2ccc(NC(=O)Nc3ccc(Cl)c(C(F)(F)F)c3)cc2)ccn1` [Mexavar], the negative-log IC50 (pIC50) in data set [1] is reported as 5.73. In turn, `O=c1[nH]/c(=C\c2ccc(OCc3cccnc3)cn2)c(=O)[nH]/c1=C\c1ccccc1` (as salt: sulfonic acid salt) [Compound 3, 3-benzylidene-6-((5-(pyridin-3-ylmethoxy)pyridin-2-yl)methylene)piperazine-2,5-dione methanesulfonic acid salt] registered a melting point of 228 to 230 °C. Take `O=c1[nH]/c(=C\c2ccc3ccccc3n2)c(=O)[nH]/c1=C\c1ccc(F)cc1` [Compound 22, 3-(4-fluorobenzylidene)-6-(quinolin-2-ylmethylene)piperazine-2,5-dione]: the melting point fell in the range of 319 to 320 °C. In the case of `COc1cc2ncnc(Nc3ccc(F)c(Cl)c3)c2cc1OCCCN1CCOCC1` [Irressa], the pIC50 in data set [1] is 5.49. The compound `O=c1[nH]/c(=C\c2ccc3ccccc3n2)c(=O)[nH]/c1=C\c1ccc(Cl)cc1` [Compound 23, 3-(4-chlorobenzylidene)-6-(quinolin-2-ylmethylene)piperazine-2,5-dione] showed a melting point of 348 to 349 °C.

In the case of `O=c1[nH]/c(=C\c2ccc(OCCO)cn2)c(=O)n(CCO)/c1=C\c1ccccc1` [Compound 18, 6-benzylidene-3-((5-(2-hydroxyethoxy)pyridin-2-yl)methylene)-1-(2-hydroxyethyl)piperazine-2,5-dione], the melting point is 326 °C (dec.). `O=c1[nH]/c(=C\c2ccc(OCc3ccccn3)cn2)c(=O)[nH]/c1=C\c1ccccc1` (as salt: sulfonic acid salt) [Compound 4, 3-benzylidene-6-((5-(pyridin-2-ylmethoxy)pyridin-2-yl)methylene)piperazine-2,5-dione methanesulfonic acid salt] yielded a melting point of 266 to 267 °C. For `CN(Cc1cnc2nc(N)nc(N)c2n1)c1ccc(C(=O)N[C@@H](CCC(=O)O)C(=O)O)cc1` [MTX], the pIC50 in data set [1] is reported as 6.95. Regarding `O=c1[nH]/c(=C\c2ccc3ccccc3n2)c(=O)[nH]/c1=C\c1ccc2ccccc2n1` [Compound 20, 3,6-bis(quinolin-2-ylmethylene)piperazine-2,5-dione], the melting point is 374 to 375 °C. For the compound `CCN(CC)CCNC(=O)c1c(C)[nH]c(/C=C2\C(=O)Nc3ccc(F)cc32)c1C` [Sutent], the pIC50 in data set [1] was 5.71. With `CCc1c2c(nc3ccc(OC(=O)N4CCC(N5CCCCC5)CC4)cc13)-c1cc3c(c(=O)n1C2)COC(=O)[C@]3(O)CC` [irinotecan], in data set [1], the negative-log IC50 (pIC50) is on record as 4.85. Compound `NC(C(=O)Oc1ccc(/C=c2\[nH]c(=O)/c(=C/c3ccccc3)[nH]c2=O)nc1)c1ccccc1` (stereo not shown) (as salt: trifluoroacetate) [Compound 9, 2-(6-((Z)—((Z)-5-benzylidene-3,6-dioxopiperazin-2-ylidene)methyl)py-ridin-3-yloxy)-2-oxo-1-phenylethanaminium 2,2,2-trifluoroacetate] showed a melting point of 280 °C.

On to `Nc1nc2[nH]cc(CCc3ccc(C(=O)N[C@@H](CCC(=O)O)C(=O)O)cc3)c2c(=O)[nH]1` [Alimta], for which the pIC50 in data set [1] is 4.97. Consider `CC(=O)N1CC(=O)N/C(=C\c2ccc3ccccc3n2)C1=O` [Compound 19, 1-acetyl-3-(quinolin-2-ylmethylene)piperazine-2,5-dione], for which the melting point was in the range of 262 to 263 °C. `NC(Cc1ccccc1)C(=O)Oc1ccc(/C=c2\[nH]c(=O)/c(=C/c3ccccc3)[nH]c2=O)nc1` (stereo not shown) (as salt: trifluoroacetate) [Compound 11, 1-(6-((Z)—((Z)-5-benzylidene-3,6-dioxopiperazin-2-ylidene)methyl)-pyridin-3-yloxy)-1-oxo-3-phenylpropan-2-aminium 2,2,2-trifluoroacetate]: the melting point is 285 to 286 °C.

Take `O=c1[nH]cc(F)c(=O)[nH]1` [Compound 5-FU, 5-FU]: the pIC50 in data set [1] is reported as 4.76. For the compound `O=c1[nH]/c(=C\c2ccc3ccccc3n2)c(=O)[nH]/c1=C\c1cccnc1` [Compound 21, 3-(pyridin-3-ylmethylene)-6-(quinolin-2-ylmethylene)piperazine-2,5-dione], the melting point is 305 to 306 °C. On to `CC(C)(C)OC(=O)NC(Cc1ccc(OC(C)(C)C)cc1)C(=O)Oc1ccc(/C=c2\[nH]c(=O)/c(=C/c3ccccc3)[nH]c2=O)nc1` (stereo not shown) [Compound 13, 6-((Z)—((Z)-5-benzylidene-3,6-dioxopiperazin-2-ylidene)methyl)pyridin-3-yl-2-(tert-butoxycarbonylamino)-3-(4-tert-butoxyphenyl)propanoate], for which the melting point is 210 to 212 °C. Compound `O=c1[nH]/c(=C\c2cccs2)c(=O)[nH]/c1=C\c1ccc2ccccc2n1` [Compound 24, 3-(quinolin-2-ylmethylene)-6-(thiophen-2-ylmethylene)piperazine-2,5-dione] gave a melting point of 288 to 289 °C.

Take `CN(C)CCCOc1cccc(/C=c2\[nH]c(=O)/c(=C/c3ccc(OCc4ccccc4)cn3)[nH]c2=O)c1` [Compound 17, 3-((5-(benzyloxy)pyridin-2-yl)methylene)-6-(3-(3-(dimethylamino)propoxy)benzylidene)piperazine-2,5-dione]: the melting point was 286 °C (dec.). Turning to `Nc1ccn([C@@H]2O[C@H](CO)[C@@H](O)C2(F)F)c(=O)n1` [Gemcitabine], the negative-log IC50 (pIC50) in data set [1] is recorded as 6.82.

On to `CC(=O)O[C@@]12CO[C@@H]1C[C@H](O)[C@@]1(C)C(=O)[C@H](O)C3=C(C)[C@@H](OC(=O)[C@H](O)[C@@H](NC(=O)OC(C)(C)C)c4ccccc4)C[C@@](O)([C@@H](OC(=O)c4ccccc4)[C@H]21)C3(C)C` [docetxel], for which the pIC50 in data set [1] is reported as 7.66. For `CC(C)(C)OC(=O)NC(Cc1ccccc1)C(=O)Oc1ccc(/C=c2\[nH]c(=O)/c(=C/c3ccccc3)[nH]c2=O)nc1` (stereo not shown) [Compound 10, 6-((Z)—((Z)-5-benzylidene-3,6-dioxopiperazin-2-ylidene)methyl)pyridin-3-yl 2-(tert-butoxycarbonylamino)-3-phenylpropanoate], the melting point is 188 °C.
